Patent US11446264B2, “Memory manipulation via modification of protein kinase C zeta activity” (THE RESEARCH FOUNDATION FOR THE STATE UNIVERSITY OF NEW YORK, priority 2017, dated 2022)
pIC50: −log10 of the molar value.

How the values were obtained:
[1] = target: T1, PKC zeta (Homo sapiens, UniProt Q05513); assay: kinase activity assay ([γ-32P]ATP, e-peptide substrate), PKC zeta; type: biochemical
T1 construct: made in house
T1 sequence (Q05513 1-592): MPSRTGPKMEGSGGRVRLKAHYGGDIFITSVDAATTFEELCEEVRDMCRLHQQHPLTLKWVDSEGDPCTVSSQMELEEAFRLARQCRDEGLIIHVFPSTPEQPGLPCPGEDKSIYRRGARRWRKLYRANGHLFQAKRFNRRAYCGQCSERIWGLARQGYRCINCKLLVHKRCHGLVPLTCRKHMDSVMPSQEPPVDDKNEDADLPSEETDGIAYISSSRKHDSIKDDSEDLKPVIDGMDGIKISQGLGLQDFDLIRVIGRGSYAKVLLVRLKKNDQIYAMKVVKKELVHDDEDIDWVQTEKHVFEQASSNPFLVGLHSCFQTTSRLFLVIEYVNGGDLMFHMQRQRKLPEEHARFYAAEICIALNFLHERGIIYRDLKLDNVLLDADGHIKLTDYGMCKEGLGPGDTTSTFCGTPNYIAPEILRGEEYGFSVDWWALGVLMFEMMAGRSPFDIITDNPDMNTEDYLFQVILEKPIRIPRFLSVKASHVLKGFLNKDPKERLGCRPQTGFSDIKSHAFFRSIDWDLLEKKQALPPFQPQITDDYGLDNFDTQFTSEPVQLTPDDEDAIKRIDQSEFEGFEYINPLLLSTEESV
Description: (§1) In separate experiments, PKC zeta and PKM zeta were recombinantly expressed and purified. PKC iota/lambda was purchased from ProQinase GmbH (Freiburg, Germany). The reaction mixture ([…] final volume) contained: 50 mM Tris-HCl (pH 7.4), 10 mM MgCl2, 1 mM DTT, […] e-peptide substrate (ERMRPRKRQGSVRRRV, AnaSpec, Freemont, Calif.), in the presence or absence of phosphatidylserine (5 mg/ml, Avanti Polar Lipids, Alabaster, Ala.), and PKC iota/lambda (184 ng, 0.2 pmol/min per assay) or PKM zeta (4 ng, 0.2 pmolmin-1/assay), in the presence or absence of NSA at concentrations given on the X axis. The reaction, initiated with the addition of […] (final concentration, ˜1-3 μCi [γ-32P]/assay), was for 30 min at 30° C., which is in the linear range for enzyme concentration (data not shown). The reaction was stopped by addition of […] of 100 mM cold ATP and 100 mM EDTA, and 40 ml of the reaction mixture was spotted onto phosphocellulose paper and counted by liquid scintillation. Activity was measured as the difference between counts incorporated in the presence and absence of enzyme. Autonomous kinase activity is defined as activity in the absence of phosphatidylserine. […] Thus, as disclosed herein, administering NSA inhibits activity of PKC zeta and PKM zeta.

[2] = target: T2, PKC iota/lambda (Homo sapiens, UniProt P41743); assay: kinase activity assay ([γ-32P]ATP, e-peptide substrate), PKC iota/lambda; type: biochemical; settings: at doses up to 10 μM
T2 construct: purchased ProQinase GmbH (Freiburg, Germany)
T2 sequence (P41743 1-596): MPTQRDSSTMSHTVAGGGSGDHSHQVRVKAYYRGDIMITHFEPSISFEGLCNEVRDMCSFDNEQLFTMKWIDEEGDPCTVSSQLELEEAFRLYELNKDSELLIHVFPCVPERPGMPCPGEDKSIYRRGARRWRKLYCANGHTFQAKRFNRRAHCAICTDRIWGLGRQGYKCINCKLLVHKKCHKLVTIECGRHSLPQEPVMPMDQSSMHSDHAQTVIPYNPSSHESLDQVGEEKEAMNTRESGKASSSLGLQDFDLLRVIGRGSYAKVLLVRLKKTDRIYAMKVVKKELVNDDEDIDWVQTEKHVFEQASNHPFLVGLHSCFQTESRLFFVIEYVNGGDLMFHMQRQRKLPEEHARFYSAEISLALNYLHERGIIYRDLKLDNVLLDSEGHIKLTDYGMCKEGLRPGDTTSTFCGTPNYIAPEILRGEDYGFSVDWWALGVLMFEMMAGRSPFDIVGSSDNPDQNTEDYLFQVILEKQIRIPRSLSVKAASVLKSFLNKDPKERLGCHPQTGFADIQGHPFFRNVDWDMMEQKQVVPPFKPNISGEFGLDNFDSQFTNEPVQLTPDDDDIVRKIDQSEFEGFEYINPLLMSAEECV
Description: as §1

[3] = system: hippocampal slices from wild-type mice; assay: maintenance of LTP in hippocampal slices from wild-type mice; type: cell-based, mouse; settings: NSA 10 μM applied 3 h post-tetanization, FIG. 3
Description: (§2) Acute mouse hippocampal slices (450 μm) were dissected, bathed in ice-cold dissection buffer, and sliced with a McIlwain tissue slicer in a cold room (4° C.). The dissection buffer contained (in mM): 125 NaCl, 2.5 KCl, 1.25 NaH2PO4, 26 NaHCO3, 11 glucose, 10 MgCl2, and 0.5 CaCl2, and was bubbled with 95% O2/5% CO2 to maintain the pH at 7.4. The slices were immediately transferred into an interface recording chamber (31.5±1° C.). The recording superfusate consisted of (in mM): 118 NaCl, 3.5 KCl, 2.5 CaCl2, 1.3 MgSO4, 1.25 NaH2PO4, 24 NaHCO3, and 15 glucose, bubbled with 95% O2/5% CO2, with a flow rate of 0.5 ml/min. […] Pathway independence was confirmed by the absence of paired-pulse facilitation between the two pathways. The high-frequency stimulation consisted of standard two 100 Hz-1 s tetanic trains, at 25% of spike threshold, spaced 20 s apart, which is optimized to produce a relatively rapid onset of protein synthesis-dependent late-LTP. The maximum slope of the rise of the fEPSP is analyzed on a PC using the WinLTP data acquisition program. Application of NSA (black bar) beginning 3 hr after application of high-frequency stimulation reversed the maintenance of LTP seen during this time period, which is known to require PKC zeta/PKM zeta activity.

[4] = system: hippocampal slices from mice lacking expression of PKC zeta/PKM zeta; assay: maintenance of LTP in hippocampal slices from PKC zeta/PKM zeta null mice; type: cell-based, mouse; settings: FIG. 4
Description: as §2, with “activity. […]” for “activity.”

[5] = system: wild-type mice; assay: active place avoidance, long-term memory retention, wild-type mice; type: in vivo, mouse; settings: 5 nmol in 0.5 μl/hippocampus, 1 day after training, FIG. 5
Description: (§3) A commercial computer-controlled active place avoidance system was used (Bio-Signal Group, Acton, Mass.). The position of the mouse on a 40 cm diameter circular arena rotating at 1 rpm was determined 30 times per second by video tracking from an overhead camera (Tracker, Bio-Signal Group). All experiments used the ‘Room+Arena−’ task variant that challenges the mouse on the rotating arena to avoid a shock zone that was a stationary 60° sector. A constant current foot-shock (60 Hz, 500 ms) was delivered after entering the shock zone for 500 ms and was repeated each 1500 ms until the mouse left the shock zone. The arena rotation periodically transported the animal into the shock zone, forcing it to actively avoid the location of shock. The shock amplitude was 0.2 or 0.3 mA, which was determined for each animal in the first session to be the minimum that elicited flinch or escape responses.
(§4) A clear wall made from Polyethylene Terephtalate Glycol-modified (PET-G) prevented the animal from jumping off the elevated arena surface. […] Every 33 ms, the software determined the mouse's position, whether it was in the shock zone, and whether to deliver shock. The time series of the tracked positions was analyzed offline (TrackAnalysis, Bio-Signal Group) to extract a number of end point measures. […]

[6] = system: PKCζ-null mice; assay: active place avoidance, long-term memory retention, PKC zeta/PKM zeta null mice; type: in vivo, mouse; settings: 5 nmol in 0.5 μl/hippocampus, 1 day after training, FIG. 5
Description: as §3, §4

[7] = system: wild-type mice; assay: active place avoidance, retraining and retesting in a different context after NSA; type: in vivo, mouse; settings: n's=5, FIG. 6
Excerpt: Above, representative diagram of training protocol, similar to that described for FIG. 5. After training, memory erasure by NSA injection in hippocampus, and retention testing in one context, mice are immediately retrained and retested in a different context. NSA on relearning ([…] with repeated measurements). There is a significant interaction between the effects of treatment (control, NSA) and trials (pretraining, training, retention in two environments) (F5,40=4.41, P=0.0027). The main effect of treatment is F1,8=3.34, p=0.10. […] Thus, the effects NSA administration has on inhibiting memory are not due to generalized, permanent damage to neural substrates responsible for learning and memory.

`O=S(=O)(O)c1cc(O)c2c(S(=O)(=O)O)cc(S(=O)(=O)O)cc2c1` [NSA, 1-naphthol-3,6,8-trisulphonic acid] was tested. Which pIC50 ([1]; FIG. 2, mean±SEM, ns=3, 30 min at 30° C., read-out: IC50 as a negative modulator of PKC zeta/PKM zeta activity) did it give?
The pIC50 was 6.70 to 7.00.

What about the “decrease of PKC zeta/PKM zeta activity” value ([1]; FIG. 2, extent of decrease) of the same molecule?
The value was “approximately 50%”.

And the “effect on PKC iota/lambda kinase activity” value [2]?
Its value is “without effect”.

What about the “maintenance of LTP (fEPSP slope)” value [3] of the same molecule?
Its value is “reverses maintenance of LTP”.

What about the “maintenance of LTP (fEPSP slope)” value [4] of the same molecule?
Its value is “no effect on maintenance of LTP”.

What about the “retention of avoidance (time to first enter the shock zone)” value [5] of the same molecule?
The value was “inhibited retention of avoidance”.

And the “retention of avoidance (time to first enter the shock zone)” value [6]?
Its value is “did not affect retention testing”.

What about the “memory retention of the pre-injection training” value ([7]; NSA injection in hippocampus) of the same molecule?
Its value is “disrupts memory retention”.

And the “memory retention of the post-injection training (different context)” value ([7]; retrained and retested after NSA injection in hippocampus)?
The value was “no effect”.
